For test [1], the system named is dual-X clone 11D. In words: Entry inhibitor susceptibility, pseudotyped HIV-1 entry (luciferase) assay, env clone 11D (c11). As to conditions: Human immunodeficiency virus 1; clone c11, tropism dual; read-out: Sensitivity of Entry Inhibitors. The class given is cell-based. The protocol:
(§1) Susceptibility assays for HIV-1 entry inhibitors were performed using packaging host cells consisting of the human embryonic kidney cell line 293 (Cell Culture Facility, UC San Francisco, SF, Calif.) and target host cells consisting of a human osteosarcoma (HOS) cell line expressing CD4 (HT4) plus CCR5, and CXCR4, astrocytoma (U-87) cell lines expressing either CD4 and CCR5 or CD4 and CXCR4, or glioma (NP2) cell lines expressing CD4 and either CCR5 or CXCR4.
(§2) Drug susceptibility and tropism testing was performed using pHIVenv and pHIVluc or pHIVlucΔU3. […] After infection ([…]) the target cells were lysed and luciferase activity was measured. […] The amount of luciferase activity detected in the infected cells was used as a direct measure of “infectivity” (FIGS. 1 and 2). […] Drug susceptibility was assessed by comparing the infectivity in the absence of drug to infectivity in the presence of drug. Relative drug susceptibility can be quantified by comparing the susceptibility of the “test” virus to the susceptibility of a well-characterized reference virus (wild type) derived from a molecular clone of HIV-1, for example NL4-3 or PIXB2.
(§3) The ability of a virus to enter a cell was assessed by comparing the amount of luciferase activity produced in each cell type, e.g., cells expressing CD4 and either CCR5 or CXCR4, both in the presence and absence of drug. […]

For test [2], the system named is dual-X clone 88D. In words: Entry inhibitor susceptibility, pseudotyped HIV-1 entry (luciferase) assay, env clone 88D (c88). The class given is cell-based. The note with it: Human immunodeficiency virus 1; clone c88, tropism dual; read-out: Sensitivity of Entry Inhibitors. The protocol:
as §1, §2, §3

Test [3] deals with X4-tropic clone 42x. Nature of the test: Entry inhibitor susceptibility, pseudotyped HIV-1 entry (luciferase) assay, env clone 42x (c42). In kind it is cell-based. The procedure: as §1, §2, §3
For test [4], the system named is dual-R clone 86d. In words: Entry inhibitor susceptibility, pseudotyped HIV-1 entry (luciferase) assay, env clone 86d (c86). The class given is cell-based. The procedure: as §1, §2, §3
Test [5] concerns dual-R clone 21d. Nature of the test: Entry inhibitor susceptibility, pseudotyped HIV-1 entry (luciferase) assay, env clone 21d (c21). The class given is cell-based. As to conditions: dual-R clone 21d compared to R5-, X4- and dual-X tropic clones. The protocol: as §1, §2, §3
In test [6] the test system is Isogenic viruses containing one or two specific mutations in the gp41 transmembrane envelope protein. In words: T-20 susceptibility of isogenic viruses with gp41 mutations (FIG. 4B). As to conditions: cells expressing CD4, CCR5 and CXCR4, gp41 mutants vs wild type. The class given is cell-based, HIV. The protocol:
Cells expressing CD4, CCR5 and CXCR4 were infected in the absence of T-20 and over a wide range of T-20 concentrations (x-axis log 10 scale). The percent inhibition of viral replication (y-axis) was determined by comparing the amount of luciferase produced in infected cells in the presence of T-20 to the amount of luciferase produced in the absence of T-20. Isogenic viruses containing one or two specific mutations in the gp41 transmembrane envelope protein were tested (highlighted in red in the figure legend). Drug susceptibility is quantified by determining the concentration of T-20 required to inhibit 50% of viral replication (IC50, shown as vertical dashed lines). […]
as §2

Consider two compounds from patent publication US10161931B2, “Methods for determining susceptibility to coreceptor inhibitors” (Monogram Biosciences, Inc., priority 2006, dated 2018).

pIC50: −log10 of the molar value.

Turning to `c1cc(CN2CCCNCCNCCCNCC2)ccc1CN1CCCNCCNCCCNCC1` [AMD], the pIC50 in test [1] was 8.47; in test [2] it was 8.06; in test [3] (Human immunodeficiency virus 1, clone c42, tropism X4, read-out: Sensitivity of Entry Inhibitors), 7.34; in test [4] (Human immunodeficiency virus 1, clone c86, tropism dual-R, read-out: Sensitivity of Entry Inhibitors), 8.25. The “sensitivity compared to other clones (in words)” value in test [3] (X4 clone 42d (so in the source)) is “subtle reduction in sensitivity”.
For the compound enfuvirtide, the fold-reduced susceptibility is recorded as 4-5 fold in test [5]; 4-5 fold in test [4] (dual-R clone 86d compared to R5-, X4- and dual-X tropic clones). The “susceptibility to fusion inhibitor (in words)” value in test [6] was “reduced susceptibility”.
